The text below walks through data of PMC8762250, “Identification of Novel Chemical Scaffolds that Inhibit the Growth of Mycobacterium tuberculosis in Macrophages” (Frontiers in Pharmacology, 2022).

As a reminder, the IC50 is the concentration at which inhibition is half-maximal. By IC90 is commonly meant the concentration at which the effect reaches the 90% level.

Series [1] can be described thus: HepG2 cytotoxicity (CellTiter-Glo, 72 h). Format: cell-based, human. The note with it: human. The procedure, abridged:
(§1)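 HepG2 cells received a 10-point three-fold compound dilution 24 h post-seeding (1% DMSO final), then 72 h exposure in glucose or galactose medium. CellTiter-Glo luminescence normalized to DMSO controls; TC50 (50% viability reduction) from Levenberg–Marquardt curve fits.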

Series [2] concerns M. tuberculosis. In words: High content assay of intracellular M. tuberculosis growth in infected RAW264.7 macrophages. Format: cell-based, Mycobacterium tuberculosis H37Rv-LP.
Series [3] concerns RAW264.7 cells. In words: Macrophage viability in the same high content assay. The note with it: for Intracellular RAW TC50 / Intracellular activity Cytotoxicity TC50: infected RAW264.7 macrophages; for Intracellular RAW TC50: SAR tables 4-8; for Intracellular activity Cytotoxicity TC50: 72 h; for selectivity index (SI): HepG2 cells and/or macrophages, cell line not specified.
Series [4] has as its system non-replicating M. tuberculosis. The arrangement: method as in Christophe et al., 2009. The note with it: ref Christophe et al., 2009; cited from earlier work.
The subject of series [5] is M. tuberculosis. The series can be described thus: Minimum inhibitory concentration in liquid medium (axenic culture). Particulars: Mycobacterium tuberculosis; for IC50: read-out: Anti-tubercular activity in axenic culture IC50. The class given is cell-based, Mycobacterium tuberculosis.
The test system of another series is HepG2 cells. The series can be described thus: HepG2 cytotoxicity (CellTiter-Glo, 72 h). Format: cell-based, human. Particulars: for HepG2 cytotoxicity TC50 Galactose / HepG2 cytotoxicity TC50 Glucose: human, 72 h; for selectivity (SI) for HepG2: HepG2 cytotoxicity / intracellular IC50. Summed up:
as §1

The subject of series [6] is M. tuberculosis. The arrangement: method as in PMID 30466326. Particulars: inhibitor of M. tuberculosis ref 20; cited from earlier work.
For series [7], the system named is RAW264.7 cells.
The mark [8] stands for this setting: HepG2 cytotoxicity IC50 Galactose.
Setting [9] is: HepG2 cytotoxicity IC50 Glucose.
The mark [10] stands for this setting: Mycobacterium tuberculosis, RAW264.7, in RAW264.7 macrophages, SAR tables 4-8, read-out: Intracellular Mtb IC50.
The mark [11] stands for this setting: axenic culture, SAR tables 4-8, read-out: Extracellular IC90.
[12] abbreviates: Mycobacterium tuberculosis, RAW264.7, 72 h, M. tuberculosis in RAW264.7 cells, MOI 1, 72 h, read-out: Intracellular activity Anti-tubercular activity IC50.
The mark [13] stands for this setting: 120 h, extracellular, 5 days, OD590.
[14] abbreviates: 120 h, extracellular, 5 days, OD590, read-out: Anti-tubercular activity in axenic culture IC90.

In brackets after ≈: the same amount, converted by molar mass. Like-named read-outs stand apart in the source and are kept apart here. Marks after values point to notes of the source that are not given here.

Turning to `Cc1ccc(OCC(=O)N2CCCc3ccccc32)cc1` [TPN-0006208], the half-inhibitory concentration (IC50) at 72 h in series [1] (setting [8]) and in series [1] (setting [9]) was greater than 100 µM in each case. Besides, the IC50 with M. tuberculosis [2] (setting [10]) was 13 µM. Also, in the series on RAW264.7 cells [3], the “Intracellular RAW TC50” value is listed as 86 ± 1.0 ^b µM. Also, the “activity against non-replicating M. tuberculosis” value in series [4] is reported as “had activity”. For the same compound, the IC90 in the series on M. tuberculosis [5] (setting [11]) was greater than 20 µM.

For `O=C(CSc1ccc(Cl)cc1)Nc1ccc(F)c(Cl)c1` [TPN-0006216], the “HepG2 cytotoxicity TC50 Galactose” value with HepG2 cells is recorded as 33 ± 4 ^b µM. The “HepG2 cytotoxicity TC50 Glucose” value in the series on HepG2 cells is reported as 44 ± 2 ^b µM. For the same compound, the IC50 at 72 h in series [1] (setting [8]) was found to be 33 ± 4 µM; in series [1] (setting [9]) it was 44 ± 2 µM. In addition, the figures for the IC90 in the series on M. tuberculosis [6], with M. tuberculosis [5] (setting [14]) and in the series with M. tuberculosis [5] (setting [11]) were 6.9 µg/mL (≈ 20.9 µM), greater than 20 µM and greater than 20 µM, respectively. Further, the “activity against intracellular M. tuberculosis” value with M. tuberculosis [2] is recorded as “good intracellular activity”. Besides, the IC50 in the series with M. tuberculosis [2] (setting [12]) was 2.8 ± 0.78 µM; in the series on M. tuberculosis [2] (setting [10]) it was 2.4 ± 0.5 µM; with M. tuberculosis [5] (setting [13]) it was greater than 20 µM. The “Intracellular activity Cytotoxicity TC50” value in the series on RAW264.7 cells [3] was >100 ^d µM. Besides, the “Intracellular RAW TC50” value in the series with RAW264.7 cells [3] is listed as >100 ^b µM; in the series on RAW264.7 cells [3] (listed as 12), greater than 100 µM. For the same compound, the “selectivity index (TC50/IC50)” value in the series on RAW264.7 cells [3] (macrophage TC50 / intracellular IC50) is greater than 42.

Consider `O=C(Nc1ccc(Cl)cc1)Nc1ccc(Nc2ccccc2)cc1` [TPN-0073077], for which the IC50 at 72 h in series [1] (setting [8]) and in series [1] (setting [9]) was greater than 100 µM in each case. For the same compound, the “cytotoxicity to macrophages” value in the series with RAW264.7 cells [7] is reported as “cytotoxic”. In the series on RAW264.7 cells [3], the “Intracellular RAW TC50” value is given as 68 ± 23 ^b µM. Also, the IC90 in the series on M. tuberculosis [5] (setting [11]) is greater than 20 µM.

With `COc1ccc(OCC(=O)Nc2sc3c(c2C(=O)NC2CCS(=O)(=O)C2)CCCC3)cc1` (centres unmarked) [TPN-0073584], in the series on HepG2 cells, the “selectivity (SI) for HepG2” value was determined as 20, the “HepG2 cytotoxicity TC50 Galactose” value is listed as >100 ^c µM and the “HepG2 cytotoxicity TC50 Glucose” value is recorded as >100 ^c µM. The compound also returned an IC50 at 72 h in series [1] (setting [8]) greater than 100 µM. In series [1] (setting [9]), this compound showed an IC50 at 72 h greater than 100 µM. In the series with M. tuberculosis [2] (setting [12]), the IC50 is 5.1 ± 1.7 µM. Besides, in the series with M. tuberculosis [2] (setting [10]), the IC50 is 5.1 ± 1.7 µM. Besides, in the series with RAW264.7 cells [3], the “selectivity index (SI)” value was greater than 10, the “Intracellular activity Cytotoxicity TC50” value is >100 ^b µM and the “Intracellular RAW TC50” value was >100 ^c µM. Further, the IC50 in the series on M. tuberculosis [5] (setting [13]) is greater than 20 µM. Besides, the IC90 in the series with M. tuberculosis [5] (setting [14]) was greater than 20 µM. Moreover, in the series on M. tuberculosis [5] (setting [11]), the IC90 is greater than 20 µM.

Take `CCc1ccccc1NC(=O)c1c(NC(=O)c2cccc(Cl)c2)sc2c1CCC2` [TPN-0073585]: in the series with HepG2 cells, the “selectivity (SI) for HepG2” value is reported as greater than 60, the “HepG2 cytotoxicity TC50 Galactose” value is >25 ^c µM and the “HepG2 cytotoxicity TC50 Glucose” value is recorded as >25 ^c µM. For the same compound, the IC50 at 72 h in series [1] (setting [8]) is greater than 25 µM. The IC50 at 72 h in series [1] (setting [9]) is greater than 25 µM. In addition, the IC50 in the series with M. tuberculosis [2] (setting [12]) was determined as 0.4 ± 0.11 µM. For the same compound, the IC50 in the series on M. tuberculosis [2] (in RAW264.7 macrophages, SAR tables 4-8, listed as 29, read-out: Intracellular Mtb IC50) is less than 5 µM. In the series on RAW264.7 cells [3], the “selectivity index (SI)” value is greater than 10, the “Intracellular activity Cytotoxicity TC50” value is 9.4 ± 1.9 ^c µM and the “Intracellular RAW TC50” value is on record as 9.4 ± 1.9 ^c µM. Further, the IC50 in the series on M. tuberculosis [5] (setting [13]) is greater than 5 µM. The IC90 in the series on M. tuberculosis [5] (setting [14]) is greater than 5 µM. In the series with M. tuberculosis [5] (setting [11]), the IC90 is greater than 5 µM.

Regarding `COC(=O)c1c(NC(NC(=O)c2cccs2)C(=O)c2ccccc2)sc(C(C)=O)c1C` (centres unmarked) [TPN-0073588], in the series with HepG2 cells, the “selectivity (SI) for HepG2” value is 15, the “HepG2 cytotoxicity TC50 Galactose” value is given as >100 ^c µM and the “HepG2 cytotoxicity TC50 Glucose” value is on record as >100 ^b µM. The same compound registered an IC50 at 72 h in series [1] (setting [8]) greater than 100 µM. The same compound gave an IC50 at 72 h in series [1] (setting [9]) of 93 ± 5.5 µM. Further, the IC50 with M. tuberculosis [2] (setting [12]) was 6.5 ± 1.7 µM. Also, in the series with M. tuberculosis [2] (setting [10]), the IC50 amounted to 6.5 ± 1.7 µM. For the same compound, in the series on RAW264.7 cells [3], the “selectivity index (SI)” value is greater than 10, the “Intracellular activity Cytotoxicity TC50” value is on record as 67 ± 8.5 ^b µM and the “Intracellular RAW TC50” value is on record as 67 ± 8.5 ^b µM. Also, the IC50 in the series on M. tuberculosis [5] (setting [13]) was greater than 20 µM. Also, in the series on M. tuberculosis [5] (setting [14]), the IC90 is greater than 20 µM. Moreover, the IC90 with M. tuberculosis [5] (setting [11]) was greater than 20 µM.
